According to PMC9246196, “Novel pyrrolopyrimidine derivatives: design, synthesis, molecular docking, molecular simulations and biological evaluations as antioxidant and anti-inflammatory agents” (Journal of Enzyme Inhibition and Medicinal Chemistry, 2022):
Converted amounts (≈) assume the structure as drawn. Blank lines part the entries; values can stand above or below the compound they belong to.

Assays:
[1] = DPPH radical scavenging assay; format: biochemical
Method: DPPH scavenging potential of samples was determined with a slightly modified method[47]^,[48]. Each sample was prepared at 500 ppm. Serial concentrations of samples were prepared (200 µL, 400 µL and 800 µL). Methanol was added to complete the total volume to 1 mL and all the samples were vortexed well. 1 mL of 0.1 mM DPPH methanolic solution was added to each diluted sample. All the samples were vortexed again, then left to stand for 30 min in the dark at environment temperature. The absorption of the developed colour appeared against the blank reagent was measured at 517 nm using a spectrophotometer. BHT was used as a standard antioxidant. The capability to scavenge DPPH radical was estimated using the following equation: DPPH scavenging ability (% inhibition)=[(A0−A*)/A0]×100
A0 is Control absorption and A* is sample absorption.

[2] = tested on: LPS-stimulated NO production by RAW 264.7 macrophages; assay: Nitric oxide assay (Griess) in LPS-induced RAW 264.7 macrophages; format: cell-based; conditions: Mus musculus; for IC50: RAW264.7, LPS-induced RAW 264.7, read-out: NO inhibition IC50; for inhibition at 12.5 µg/mL / inhibition at 25 µg/mL / inhibition at 50 µg/mL / inhibition at 100 µg/mL: RAW264.7, LPS 10 µg/mL, read-out: NO % inhibition (mean ± SEM)
Method: (§1) RAW 264.7 cells were suspended in a RPMI medium. After 24 h of seeding 1 × 10^5 cells per well (in 96 well plates) and incubated for 24 h for the experiments. The cells were then treated with the samples at concentrations of 100, 50, 25 and 12.5 μg/mL and incubated for 1 h. They were then stimulated with 10 μg/mL of LPS for another 24 h. The supernatant was gently transferred to new 96-well plates and used for NO determination, while the cells that remained in the old plate were used for the MTT assay of cell viability. Samples (stock) were dissolved in DMSO, and the working samples were prepared in the media. Cell viability was assessed by the mitochondrial dependent reduction of yellow MTT (3–(4,5-dimethylthiazol-2-yl)-2,5-diphenyltetrazolium bromide) to purple formazan.
Nitric oxide production was assayed by measuring nitrite in the supernatants of cultured LPS-RAW 264.7 cells. The assay was carried out as described previously with slight modification[48]^,[50]. After pre-incubation of RAW 264.7 cells (1 × 10^5 cells/mL) with LPS (10 µg/mL) for 24 h, the amount of nitrite, a stable metabolite of NO used as an indicator of NO production in the culture medium was measured using the Griess reagent (1% sulphanilamide and 0.1% naphthyl ethylenediamine dihydrochloride in 2.5% phosphoric acid). A volume of 50 µL of the cell culture medium was mixed with 50 µL of the Griess reagent. Subsequently, the mixture was incubated at room temperature for 15 min and the absorbance was measured at 540 nm by a microplate reader. Fresh culture medium was used as a blank in every experiment. The quantity of nitrite was determined from a sodium nitrite standard curve as expressed in the equation. Nitric oxide inhibition (%)=(optical denisty of control−optical denisty of test /optical denisty of control ) ×100.

[3] = tested on: RAW 264.7 cells; assay: MTT cytotoxicity against RAW 264.7 macrophage cells; format: cell-based; conditions: RAW 264.7, MTT
Method: The macrophage cell line, RAW 264.7 was obtained from the ATCC (American type culture collection). The cells were cultured in RPMI 1640 medium (Roswell Park Memorial Institute) and supplemented with 1% pen/strep and 10% heat-inactivated foetal bovine serum. The cells were incubated, in a humidified incubator, in an atmosphere of 5% CO2 at 37 °C and were subculture twice before the experiment.
as §1
The percentage of change in viability was calculated according to the formula: [(Reading of extract /Reading of negative control )−1]×100.

SMILES: O=c1[nH]nc2c3c(-c4ccccc4)cn(-c4ccc(Cl)cc4)c3ncn12 [6b, 7–(4-Chlorophenyl)-9-phenyl-7H-pyrrolo[3,2-e][1,2,4]triazolo[4,3-c]pyrimidin-3-one]
- melting point: 233 to 235 °C

SMILES: NNc1ncnc2c1c(-c1ccccc1)cn2-c1ccc(Cl)cc1 [2b, (7–(4-Chlorophenyl)-5-phenyl-7H-pyrrolo[2,3-d]pyrimidin-4-yl)-hydrazine]
- melting point: 217 to 219 °C

SMILES: Cc1nnc2c3c(-c4ccccc4)cn(-c4cccc(Cl)c4)c3ncn12 [5a, 7–(3-Chlorophenyl)-3-methyl-9-phenyl-7H-pyrrolo[3,2-e][1,2,4]triazolo[4,3-c] pyrimidine]
- melting point: 227 to 229 °C

SMILES: S=c1[nH]nc2c3c(-c4ccccc4)cn(-c4ccc(Cl)cc4)c3ncn12 [4b, 7–(4-Chlorophenyl)-9-phenyl-7H-pyrrolo[3,2-e][1,2,4]triazolo[4,3-c]pyramid in-3-thione]
- melting point: 187 to 189 °C
- DPPH radical-scavenging IC50 [1]: 129.38 µg/mL
- DPPH % Inhibition (mean ± SEM) ([1]; conc. 100 (µg/mL)): 37.97 ± 0.71%
- DPPH % Inhibition (mean ± SEM) ([1]; conc. 200 (µg/mL)): 77.76 ± 1.60%
- DPPH % Inhibition (mean ± SEM) ([1]; conc. 400 (µg/mL)): 79.55 ± 1.06%
- IC50 [2]: 64.8 µg/mL (≈ 171 µM)
- inhibition at 12.5 µg/mL [2]: 39.8 ± 1.9%
- inhibition at 25 µg/mL [2]: 52.8 ± 1.1%
- inhibition at 50 µg/mL [2]: 54.3 ± 1.6%
- inhibition at 100 µg/mL [2]: 58.1 ± 3.5%
- Cytotoxicity of raw cells% (mean ± SEM) ([3]; 12.5 µg/mL): 0%
- Cytotoxicity of raw cells% (mean ± SEM) ([3]; 25 µg/mL): 69.6 ± 1.3%
- Cytotoxicity of raw cells% (mean ± SEM) ([3]; 50 µg/mL): 75.2 ± 2.5%
- Cytotoxicity of raw cells% (mean ± SEM) ([3]; 100 µg/mL): 85.4 ± 0.6%

SMILES: Clc1ccc(-n2cc(-c3ccccc3)c3c2ncn2cnnc32)cc1 [3b, 7–(4-Chlorophenyl)-9-phenyl-7H-pyrrolo[3,2-e][1,2,4]triazolo[4,3-c] pyrimidine]
- melting point: 190 to 192 °C

SMILES: Cc1cc(C)n(-c2ncnc3c2c(-c2ccccc2)cn3-c2ccc(Cl)cc2)n1 [7b, 7–(4-Chlorophenyl)-4–(3,5-dimethyl-pyrazol-1-yl)-5-phenyl-pyrrolo[2,3-d]pyrimidine]
- melting point: 199 to 201 °C

SMILES: Cc1cc(C(C)(C)C)c(O)c(C(C)(C)C)c1 [BHT, butylated hydroxytoluene, reference compound]
- DPPH radical-scavenging IC50 [1]: 128.77 µg/mL
- DPPH % Inhibition (mean ± SEM) ([1]; conc. 100 (µg/mL)): 40.03 ± 0.39%
- DPPH % Inhibition (mean ± SEM) ([1]; conc. 200 (µg/mL)): 76.81 ± 0.21%
- DPPH % Inhibition (mean ± SEM) ([1]; conc. 400 (µg/mL)): 90.07 ± 0.26%

SMILES: NNc1ncnc2c1c(-c1ccccc1)cn2-c1cccc(Cl)c1 [2a, (7–(3-Chlorophenyl)-5-phenyl-7H-pyrrolo[2,3-d]pyrimidin-4-yl)-hydrazine]
- melting point: 204 to 206 °C

SMILES: O=c1[nH]nc2c3c(-c4ccccc4)cn(-c4cccc(Cl)c4)c3ncn12 [6a, 7–(3-Chlorophenyl)-9-phenyl-7H-pyrrolo[3,2-e][1,2,4]triazolo[4,3-c]pyrimidin-3-one]
- melting point: 226 to 228 °C

SMILES: Clc1cccc(-n2cc(-c3ccccc3)c3c2ncn2cnnc32)c1 [3a, 7–(3-Chlorophenyl)-9-phenyl-7H-pyrrolo[3,2-e][1,2,4]triazolo[4,3-c] pyrimidine]
- melting point: 176 to 178 °C
- DPPH radical-scavenging IC50 [1]: 160.05 µg/mL
- DPPH % Inhibition (mean ± SEM) ([1]; conc. 100 (µg/mL)): 39.56 ± 0.88%
- DPPH % Inhibition (mean ± SEM) ([1]; conc. 200 (µg/mL)): 58.09 ± 1.50%
- DPPH % Inhibition (mean ± SEM) ([1]; conc. 400 (µg/mL)): 62.51 ± 0.32%
- IC50 [2]: 57.3 µg/mL (≈ 166 µM)
- inhibition at 12.5 µg/mL [2]: 40.6 ± 2.6%
- inhibition at 25 µg/mL [2]: 53.1 ± 1.3%
- inhibition at 50 µg/mL [2]: 62.5 ± 1.2%
- inhibition at 100 µg/mL [2]: 65.6 ± 1.2%
- Cytotoxicity of raw cells% (mean ± SEM) ([3]; 12.5 µg/mL): 0%
- Cytotoxicity of raw cells% (mean ± SEM) ([3]; 25 µg/mL): 76.5 ± 1.9%
- Cytotoxicity of raw cells% (mean ± SEM) ([3]; 50 µg/mL): 78.7 ± 2.2%
- Cytotoxicity of raw cells% (mean ± SEM) ([3]; 100 µg/mL): 92.0 ± 1.6%

SMILES: Cc1cc(C)n(-c2ncnc3c2c(-c2ccccc2)cn3-c2cccc(Cl)c2)n1 [7a, 7–(3-Chlorophenyl)-4–(3,5-dimethyl-pyrazol-1-yl)-5-phenyl-pyrrolo[2,3-d]pyrimidine]
- melting point: 180 to 182 °C

SMILES: Cc1nnc2c3c(-c4ccccc4)cn(-c4ccc(Cl)cc4)c3ncn12 [5b, 7–(4-Chlorophenyl)-3-methyl-9-phenyl-7H-pyrrolo[3,2-e][1,2,4]triazolo[4,3-c] pyrimidine]
- melting point: 201 to 203 °C

Continued, in another order:

- melting point: 172 to 174 °C
SMILES: Clc1ccc(-n2cc(-c3ccccc3)c3c(N/N=C/c4ccccc4)ncnc32)cc1 [8b, N-[(E)-benzylideneamino]-7–(4-chlorophenyl)-5-phenyl-pyrrolo[2,3-d]pyrimidin-4-amine]

- melting point: 247 to 249 °C
SMILES: Clc1ccc(/C=N/Nc2ncnc3c2c(-c2ccccc2)cn3-c2cccc(Cl)c2)cc1 [8c, 7–(3-Chlorophenyl)-N-[(E)-(4-chlorophenyl)methyleneamino]-5-phenyl-pyrrolo[2,3-d]pyrimidin-4-amine]

- melting point: 187 to 189 °C
SMILES: Clc1ccc(/C=N/Nc2ncnc3c2c(-c2ccccc2)cn3-c2ccc(Cl)cc2)cc1 [8d, 7–(4-Chlorophenyl)-N-[(E)-(4-chlorophenyl)methyleneamino]-5-phenyl-pyrrolo[2,3-d]pyrimidin-4-amine]

- melting point: 167 to 169 °C
- DPPH radical-scavenging IC50 [1]: 122.07 µg/mL
- IC50 [2]: ~53 µg/mL (≈ 117 µM)
SMILES: COc1ccc(/C=N/Nc2ncnc3c2c(-c2ccccc2)cn3-c2cccc(Cl)c2)cc1 [8e, 7–(3-Chlorophenyl)-N-[(E)-(4-methoxyphenyl)methyleneamino]-5-phenyl-pyrrolo[2,3-d]pyrimidin-4-amine]
- DPPH % Inhibition (mean ± SEM) ([1]; conc. 100 (µg/mL)): 40.63 ± 2.13%
- DPPH % Inhibition (mean ± SEM) ([1]; conc. 200 (µg/mL)): 82.15 ± 0.14%
- DPPH % Inhibition (mean ± SEM) ([1]; conc. 400 (µg/mL)): 85.22 ± 0.17%
- inhibition at 12.5 µg/mL [2]: 38.7 ± 1.7%
- inhibition at 25 µg/mL [2]: 66.5 ± 3.7%
- inhibition at 50 µg/mL [2]: 67.5 ± 1.8%
- inhibition at 100 µg/mL [2]: 71.8 ± 1%
- Cytotoxicity of raw cells% (mean ± SEM) ([3]; 12.5 µg/mL): 0%
- Cytotoxicity of raw cells% (mean ± SEM) ([3]; 25 µg/mL): 65 ± 3.1%
- Cytotoxicity of raw cells% (mean ± SEM) ([3]; 50 µg/mL): 73.1 ± 1.3%
- Cytotoxicity of raw cells% (mean ± SEM) ([3]; 100 µg/mL): 77.7 ± 1.5%

- melting point: 194 to 196 °C
SMILES: COc1ccc(/C=N/Nc2ncnc3c2c(-c2ccccc2)cn3-c2ccc(Cl)cc2)cc1 [8f, 7–(4-Chlorophenyl)-N-[(E)-(4-methoxyphenyl)methyleneamino]-5-phenyl-pyrrolo[2,3-d]pyrimidin-4-amine]

- melting point: 187 to 189 °C
SMILES: Clc1cccc(-n2cc(-c3ccccc3)c3c(N/N=C/c4ccccc4)ncnc32)c1 [8a, N-[(E)-benzylideneamino]-7–(3-chlorophenyl)-5-phenyl-pyrrolo[2,3-d]pyrimidin-4-amine]
